Test results taken from patent publication US12208091B2, “Compounds for treatment of eye diseases associated with excessive vascularisation” (Active Biotech AB, priority 2019, dated 2025).

How the values were obtained:
[1] = tested on: choroidal neovascularisation; assay: Laser-induced choroidal neovascularisation rat model, fluorescein angiography leakage score; type: in vivo, Brown Norway pigmented rats; parameters: key to Mean score of fluorescein leakage: 0 = no leakage, 1 = slight, 2 = moderate, 3 = strongly stained
Experimental: Forty-eight (48) Brown Norway pigmented rats were divided into six (6) groups of eight (8) animals. Choroidal neovascularization was induced using a 532 nm argon laser photocoagulator (six (6) 75 μm-sized spots at 150 mW for 0.1 sec duration) in the right eyes on Day 0. The test item was administered three times a day by instillation or twice a day by oral administration from Day 0 (DO) just after ChNV induction to Day 21 (last day of the study). Control item (vehicle) was instilled three times a day and the reference item (Dexamethasone in olive oil) was administered by daily oral administration from the Day 0 just after induction of neovascularization to Day 21. Fundus neovessels were evaluated in the right eyes on Days 14 and 21 using Heidelberg's Retinal Angiograph (HRA). Lesion size was determined on choroid flatmounts labelled with Isolectin-B4 at the end of the in vivo period.
On Day 0, animals were anesthetized by an intramuscular injection of a mix of xylazine (5 mg/kg) and ketamine (25 mg/kg). Pupils from the right eyes were dilated by instillation of one drop of 0.5% tropicamide. Then, six (6) choroidal burns (75 μm spot size) were done through a slit-lamp, with a contact lens, around the optic disc, between the main vessel branches using an argon laser photocoagulator (532 nm; 150 mW; 0.1 sec duration). Production of a bubble at the time of laser treatment confirmed the rupture of Bruch's membrane.
Test, control, or reference items were administered topically by instillation (10 μL each) or by oral route (1 mL/kg) from Day 0 (just after the induction) to Day 21 (end of the study). Test and control items were administered three times a day (for instillation) and two times a day (for oral administration). Reference item was administered once a day by oral route.
Fluorescein angiography was performed on Days 14 and 21 using an HRA (Heidelberg's Retinal Angiograph). After anaesthesia (same mix used for ChNV induction) and pupillary dilation, 250 μL/100 g (body weight) of a 10% sodium fluorescein was injected subcutaneously using a 26-G insulin syringe, and fluorescein photos were recorded 10 minutes after dye injection.
The leakage of fluorescein on the angiograms were evaluated by two examiners in a masked fashion and graded as follows: • Score 0, no leakage; • Score 1, slightly stained; • Score 2, moderately stained; • Score 3, strongly stained.
Statistical analysis, using Mann-Whitney U test or appropriate statistical model, were performed on the scoring of lesions visualized by HRA from each animal and on the scoring of the flat mounted preparations.
The grading of fluorescein angiographies (FA) was based on the fluorescence intensity for each lesion. For each treatment group, results were expressed as the group mean score per time-point. Table 1 summarises the evaluation of FA recorded at 10 min on Days 14 and 21 (n=8 animals per group, right eyes). A statistical analysis was performed on the median of the individual intensity scores, using a Kruskall-Wallis test followed by a Mann & Whitney U multiple comparison test, which was used to compare each test, control or reference group.

[2] = tested on: bFGF induced corneal vascularisation; assay: bFGF induced corneal vascularisation (pellet in corneal pocket), area of neovascularisation; type: in vivo, C57BL/6 mice
[3] = Instillations 0.2% 3×/day, Day 14
[4] = Instillations 0.2% 3×/day, Day 21
[5] = Instillations 1% 3×/day, Day 14
[6] = Instillations 1% 3×/day, Day 21
[7] = Instillations 5% 3×/day, Day 14
[8] = Instillations 5% 3×/day, Day 21
[9] = group 4: 10 μg/animal topical bid ×5, measured day 6
[10] = group 6: 10 μg/animal topical qid ×5, measured day 6

CCN(C(=O)c1c(O)c2c(Cl)cccc2n(C)c1=O)c1ccccc1 [laquinimod]
% of reduction vs respective vehicle [1, 3]: 0%
Mean score of fluorescein leakage [1, 3]: 0.7
% of reduction vs respective vehicle [1, 4]: 18%
Mean score of fluorescein leakage [1, 4]: 0.9
% of reduction vs respective vehicle [1, 5]: <0%
Mean score of fluorescein leakage [1, 5]: 1.1
% of reduction vs respective vehicle [1, 6]: <0%
Mean score of fluorescein leakage [1, 6]: 1.2
% of reduction vs respective vehicle [1, 7]: 0%
Mean score of fluorescein leakage [1, 7]: 0.7
% of reduction vs respective vehicle [1, 8]: 63%
Mean score of fluorescein leakage [1, 8]: 0.4
% of reduction vs respective vehicle ([1]; Per os 1 mg/kg 2×/day, Day 14): <0%
Mean score of fluorescein leakage ([1]; Per os 1 mg/kg 2×/day, Day 14): 0.8
% of reduction vs respective vehicle ([1]; Per os 1 mg/kg 2×/day, Day 21): 18%
Mean score of fluorescein leakage ([1]; Per os 1 mg/kg 2×/day, Day 21): 0.9
vascular leakage ([1]; daily topical administration): effectively reduces vascular leakage
Inhibition of corneal vascularisation induced by bFGF ([2]; 0.5 mg/kg qid, group 6): 37%
Area of vasc. [2, 9]: 3.16 ± 0.06
Area percent of positive control [2, 9]: 89%
Area of vasc. [2, 10]: 2.25 ± 0.16
Area percent of positive control [2, 10]: 63%
Area percent of positive control ([2]; group 7: 50 μg/animal topical qid ×5, measured day 6): 44%
